In patent US20250179059A1 (The Regents of the University of California, priority 2021, published 2025):
pIC50: −log10 of the molar value.

Key:
[1] = biological target: T1, human BRD4 bromodomain II (Homo sapiens, UniProt O60885); experiment: Bromodomain binding assay (AlphaScreen), BRD4 BDII; conditions: AlphaScreen assay, Table C2; read-out: BRD4 BDII IC50
T1 construct: human BRD4 bromodomain II [based on Genbank NM_058243, residues 349-460]; host or cells: E. coli
Summary of the method: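 First, His6-tagged BRD4 bromodomain (BDI residues 44-170 or BDII residues 349-460) is incubated with compound for 30 min at room temperature. Next the biotinylated H4 peptide is added for 30 min, then donor and acceptor beads, with 60 min in the dark before AlphaScreen reading and IC50 fitting.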

[2] = tested on: human SKM-1 acute myeloid leukemia cells; experiment: SKM-1 antiproliferation cell-based assay (ATPlite); conditions: Homo sapiens, SKM-1, 96 h, SKM-1 antiproliferation assay, 4 days, Table C2
Summary of the method: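 Log-phase cells in RPMI 1640/15% FBS were seeded at 34722 cells/mL and exposed for 4 days to nine-concentration DMSO serial dilutions in triplicate. Viability was read as ATP luminescence (ATPlite 1step), and IC50 values came from variable-slope non-linear regression.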

Row | pIC50 [1] | GI50 [2] [nM] | Structure (SMILES)
1 | 9.00 to 11.00 | 0.3 to 30 | CC(C)N1CCN(c2cc(-c3cc(F)cc(-c4ccc(-n5ccn(C)c5=O)c(Cl)c4)c3O)cc3c2cnn3C)CC1 [Example 672, 1-(3-chloro-5′-fluoro-2′-hydroxy-3′-(4-(4-isopropylpiperazin-1-yl)-1-methyl-1H-indazol-6-yl)-[1,1′-biphenyl]-4-yl)-3-methyl-1H-imidazol-2(3H)-one]
2 | 9.00 to 11.00 | 30 to 300 | Cn1ccn(-c2ccc(-c3cc(F)cc(-c4ccnc(N5CCC6(CCO6)C5)c4)c3O)cc2Cl)c1=O (stereo not drawn) [Example 674, 1-(3′-(2-(1-oxa-6-azaspiro[3.4]octan-6-yl)pyridin-4-yl)-3-chloro-5′-fluoro-2′-hydroxy-[1,1′-biphenyl]-4-yl)-3-methyl-1H-imidazol-2(3H)-one]
3 | 9.00 to 11.00 | 0.3 to 30 | CC(C)N1CCCN(c2cc(-c3cc(F)cc(-c4ccc(-n5ccn(C)c5=O)c(Cl)c4)c3O)ccn2)CC1 [Example 678, 1-(3-chloro-5′-fluoro-2′-hydroxy-3′-(2-(4-isopropyl-1,4-diazepan-1-yl)pyridin-4-yl)-[1,1′-biphenyl]-4-yl)-3-methyl-1H-imidazol-2(3H)-one]
4 | 9.00 to 11.00 | 0.3 to 30 | CC(C)CN1CCN(c2cc(-c3cc(F)cc(-c4ccc(-n5ccn(C)c5=O)c(Cl)c4)c3O)ccn2)CC1 [Example 682, 1-(3-chloro-5′-fluoro-2′-hydroxy-3′-(2-(4-isobutylpiperazin-1-yl)pyridin-4-yl)-[1,1′-biphenyl]-4-yl)-3-methyl-1H-imidazol-2(3H)-one]
5 | 9.00 to 11.00 | 30 to 300 | Cn1ccn(-c2ccc(-c3cc(F)cc(-c4ccnc(N5CCC6(CCCO6)C5)c4)c3O)cc2Cl)c1=O (stereo not drawn) [Example 683, 1-(3′-(2-(1-oxa-7-azaspiro[4.4]nonan-7-yl)pyridin-4-yl)-3-chloro-5′-fluoro-2′-hydroxy-[1,1′-biphenyl]-4-yl)-3-methyl-1H-imidazol-2(3H)-one]
6 | 8.00 to 9.00 | 30 to 300 | C[C@@H]1CN(c2cc(-c3cc(F)cc(-c4ccc(-n5ccn(C)c5=O)c(Cl)c4)c3O)ccn2)C[C@@H](C)O1 [Example 684, 1-(3-chloro-3′-(2-((2R,6R)-2,6-dimethylmorpholino)pyridin-4-yl)-5′-fluoro-2′-hydroxy-[1,1′-biphenyl]-4-yl)-3-methyl-1H-imidazol-2(3H)-one]
7 | 9.00 to 11.00 | 0.3 to 30 | Cn1ccn(-c2ccc(-c3cc(F)cc(-c4ccnc(N5CCCC6(CCN6)C5)c4)c3O)cc2Cl)c1=O (stereo not drawn) [Example 688, 1-(3′-(2-(1,6-diazaspiro[3.5]nonan-6-yl)pyridin-4-yl)-3-chloro-5′-fluoro-2′-hydroxy-[1,1′-biphenyl]-4-yl)-3-methyl-1H-imidazol-2(3H)-one]
8 | 9.00 to 11.00 | 30 to 300 | CO[C@H]1CCN(c2cc(-c3cc(F)cc(-c4ccc(-n5ccn(C)c5=O)c(Cl)c4)c3O)ccn2)C1 [Example 691, (S)-1-(3-chloro-5′-fluoro-2′-hydroxy-3′-(2-(3-methoxypyrrolidin-1-yl)pyridin-4-yl)-[1,1′-biphenyl]-4-yl)-3-methyl-1H-imidazol-2(3H)-one]
9 | 9.00 to 11.00 | 0.3 to 30 | CN1CCCC12CCCN(c1cc(-c3cc(F)cc(-c4ccc(-n5ccn(C)c5=O)c(Cl)c4)c3O)ccn1)C2 (stereo not drawn) [Example 695, 1-(3-chloro-5′-fluoro-2′-hydroxy-3′-(2-(1-methyl-1,7-diazaspiro[4.5]decan-7-yl)pyridin-4-yl)-[1,1′-biphenyl]-4-yl)-3-methyl-1H-imidazol-2(3H)-one]

Second part, the molecule before the results:

Row | Structure (SMILES) | pIC50 [1] | GI50 [2] [nM]
10 | C[C@@H]1CN(c2cc(-c3cc(F)cc(-c4ccc(-n5ccn(C)c5=O)c(Cl)c4)c3O)ccn2)CCO1 [Example 673, (R)-1-(3-chloro-5′-fluoro-2′-hydroxy-3′-(2-(2-methylmorpholino)pyridin-4-yl)-[1,1′-biphenyl]-4-yl)-3-methyl-1H-imidazol-2(3H)-one] | 9.00 to 11.00 | 30 to 300
11 | Cn1ccn(-c2ccc(-c3cc(F)cc(-c4ccnc(N5CCN6C(=O)OCCC6C5)c4)c3O)cc2Cl)c1=O (stereo not drawn) [Example 675, 2-(4-(3′-chloro-5-fluoro-2-hydroxy-4′-(3-methyl-2-oxo-2,3-dihydro-1H-imidazol-1-yl)-[1,1′-biphenyl]-3-yl)pyridin-2-yl)hexahydropyrazino[1,2-c][1,3]oxazin-6(2H)-one] | 9.00 to 11.00 | 30 to 300
12 | COCCC1CN(c2cc(-c3cc(F)cc(-c4ccc(-n5ccn(C)c5=O)c(Cl)c4)c3O)ccn2)CCN1 (stereo not drawn) [Example 676, 1-(3-chloro-5′-fluoro-2′-hydroxy-3′-(2-(3-(2-methoxyethyl)piperazin-1-yl)pyridin-4-yl)-[1,1′-biphenyl]-4-yl)-3-methyl-1H-imidazol-2(3H)-one] | 9.00 to 11.00 | 0.3 to 30
13 | C[C@@H]1CN(c2cc(-c3cc(F)cc(-c4ccc(-n5ccn(C)c5=O)c(Cl)c4)c3O)ccc2F)CCN1 [Example 677, (R)-1-(3-chloro-4″,5′-difluoro-2′-hydroxy-3″-(3-methylpiperazin-1-yl)-[1,1′:3′,1″-terphenyl]-4-yl)-3-methyl-1H-imidazol-2(3H)-one] | 9.00 to 11.00 | 0.3 to 30
14 | COC(=O)CC1CN(c2cc(-c3cc(F)cc(-c4ccc(-n5ccn(C)c5=O)c(Cl)c4)c3O)ccn2)CCN1 (stereo not drawn) [Example 679, methyl 2-(4-(4-(3′-chloro-5-fluoro-2-hydroxy-4′-(3-methyl-2-oxo-2,3-dihydro-1H-imidazol-1-yl)-[1,1′-biphenyl]-3-yl)pyridin-2-yl)piperazin-2-yl)acetate] | 8.00 to 9.00 | 30 to 300
15 | Cn1ccn(-c2ccc(-c3cc(F)cc(-c4ccnc(N5CCN[C@H](CN)C5)c4)c3O)cc2Cl)c1=O [Example 680, (R)-1-(3′-(2-(3-(aminomethyl)piperazin-l-yl)pyridin-4-yl)-3-chloro-5′-fluoro-2′-hydroxy-[1,1′-biphenyl]-4-yl)-3-methyl-1H-imidazol-2(3H)-one] | 9.00 to 11.00 | 30 to 300
16 | Cn1ccn(-c2ccc(-c3cc(F)cc(-c4ccnc(N5CCN(CCC6CC6)CC5)c4)c3O)cc2Cl)c1=O [Example 681, 1-(3-chloro-3′-(2-(4-(2-cyclopropylethyl)piperazin-1-yl)pyridin-4-yl)-5′-fluoro-2′-hydroxy-[1,1′-biphenyl]-4-yl)-3-methyl-1H-imidazol-2(3H)-one] | 9.00 to 11.00 | 0.3 to 30
17 | Cn1ccn(-c2ccc(-c3cc(F)cc(-c4ccnc(N5CCC(C)(O)C5)c4)c3O)cc2Cl)c1=O (stereo not drawn) [Example 685, 1-(3-chloro-5′-fluoro-2′-hydroxy-3′-(2-(3-hydroxy-3-methylpyrrolidin-1-yl)pyridin-4-yl)-[1,1′-biphenyl]-4-yl)-3-methyl-1H-imidazol-2(3H)-one] | 9.00 to 11.00 | 0.3 to 30
18 | Cn1ccn(-c2ccc(-c3cc(F)cc(-c4ccnc(N5CCC(C)(N)C5)c4)c3O)cc2Cl)c1=O (stereo not drawn) [Example 686, 1-(3′-(2-(3-amino-3-methylpyrrolidin-1-yl)pyridin-4-yl)-3-chloro-5′-fluoro-2′-hydroxy-[1,1′-biphenyl]-4-yl)-3-methyl-1H-imidazol-2(3H)-one] | 9.00 to 11.00 | 0.3 to 30
19 | Cn1cc(-c2cc(F)cc(-c3ccc(-n4ccn(C)c4=O)c(Cl)c3)c2O)cc(N2CCC3(CCCN3)C2)c1=O (stereo not drawn) [Example 687, 5-(3′-chloro-5-fluoro-2-hydroxy-4′-(3-methyl-2-oxo-2,3-dihydro-1H-imidazol-1-yl)-[1,1′-biphenyl]-3-yl)-1-methyl-3-(1,7-diazaspiro[4.4]nonan-7-yl)pyridin-2(1H)-one] | 9.00 to 11.00 | 0.3 to 30
20 | C[C@@H]1CN(c2cc(-c3cc(F)cc(-c4ccc(-n5ccn(C)c5=O)c(Cl)c4)c3O)cc(=O)n2C)CCN1 [Example 689, (R)-4-(3′-chloro-5-fluoro-2-hydroxy-4′-(3-methyl-2-oxo-2,3-dihydro-1H-imidazol-1-yl)-[1,1′-biphenyl]-3-yl)-1-methyl-6-(3-methylpiperazin-1-yl)pyridin-2(1H)-one] | 9.00 to 11.00 | 0.3 to 30
21 | Cn1ccn(-c2ccc(-c3cc(F)cc(-c4ccnc(N5CC[S+]([O-])CC5)c4)c3O)cc2Cl)c1=O [Example 690, 1-(3-chloro-5′-fluoro-2′-hydroxy-3′-(2-(1-oxidothiomorpholino)pyridin-4-yl)-[1,1′-biphenyl]-4-yl)-3-methyl-1H-imidazol-2(3H)-one] | 9.00 to 11.00 | 30 to 300
22 | Cn1ccn(-c2ccc(-c3cc(F)cc(-c4cncc(N5CCC6(CCCN6)C5)c4)c3O)cc2Cl)c1=O (stereo not drawn) [Example 692, 1-(3′-(5-(1,7-diazaspiro[4.4]nonan-7-yl)pyridin-3-yl)-3-chloro-5′-fluoro-2′-hydroxy-[1,1′-biphenyl]-4-yl)-3-methyl-1H-imidazol-2(3H)-one] | 9.00 to 11.00 | 0.3 to 30
23 | CN1CCC12CCCN(c1cc(-c3cc(F)cc(-c4ccc(-n5ccn(C)c5=O)c(Cl)c4)c3O)ccn1)C2 (stereo not drawn) [Example 693, 1-(3-chloro-5′-fluoro-2′-hydroxy-3′-(2-(1-methyl-1,6-diazaspiro[3.5]nonan-6-yl)pyridin-4-yl)-[1,1′-biphenyl]-4-yl)-3-methyl-1H-imidazol-2(3H)-one] | 9.00 to 11.00 | 0.3 to 30
24 | Cn1ccn(-c2ccc(-c3cc(F)cc(-c4ccnc(N5CCCC6(CCCN6)C5)c4)c3O)cc2Cl)c1=O (stereo not drawn) [Example 694, 1-(3′-(2-(1,7-diazaspiro[4.5]decan-7-yl)pyridin-4-yl)-3-chloro-5′-fluoro-2′-hydroxy-[1,1′-biphenyl]-4-yl)-3-methyl-1H-imidazol-2(3H)-one] | 8.00 to 9.00 | 0.3 to 30
